Values of other authors as cited in patent US20200390726A1, “Compositions for Improved Neuroprotective Effects and Methods of Making Same” (Guardion Health Sciences, LLC, priority 2019, published 2020).

System: glaucoma patients
Details: literature, anthocyanins 50 mg daily, PEA 600 mg per day, Mirtogenol dose not given

Question: Which “effect on visual field” value (citicoline 500 to 1,000 mg daily) does the source give for CCCCCCCCCCCCCCCC(=O)NCCO [PEA, Palmitoylethanolamide] here?
Answer: The value was “improvement in the visual field”.

Question: And the “effect on intraocular pressure (IOP)” value (forskolin 1% eye drops)?
Answer: The value was “lowering of IOP”.
